Measurements from patent US12551449B2, “Tunable degradation in hydrogel microparticles” (LIKARDA, INC., priority 2019, dated 2026).

Tests used:
[1] = thiol group(s); cited from earlier work
[2] = tested on: canine islets; assay: Cytotoxicity of UV light and photoinitiator on canine islets; assay type: cell-based; conditions: 10 minutes UV ~40 mW/cm^2
Experimental: (§1) Dead cells were identified using propidium iodine staining and fluorescence microscopy. Fluorescence micrographs were captured with a Cytation 5 Imaging Multi-Mode Reader (Biotek Instruments, Inc, 531/647 nm ex/em). Cell death was quantified by calculating the ratio of red (dead) pixels to total islet pixels using Adobe Photoshop. Twenty-five individual islets were analyzed per group and were distinguished from non-islet tissues via dithizone staining. Results are reported as the average viable cell fraction and normalized to islet viability of the matched, untreated controls (i.e., islet from the same batch in culture medium).
For PEGDA and methacrylated hyaluronic acid (MeHA) microparticles, photocrosslinking was utilized. Thus, studies examining the toxicity of ultraviolet light (UV) and the photoinitiator were first conducted. Canine islets were suspended in Dulbecco's phosphate buffered saline (DPBS) containing 0, 0.025 or 0.05% (w/v) of the photoinitiator, IRGACURE® 2959. Approximately 50 IEQ were loaded into wells of a 24-well plate and irradiated with long-wave ultraviolet (UV) light for 3, 5 or 10 minutes. […] Cell death was evaluated via propidium iodide staining and quantified as described in the previous section.

[3] = tested on: canine islets; assay: Cytotoxicity of calcium (CSS component) on canine islets, propidium iodide staining; assay type: cell-based
Experimental: The cytotoxicity of calcium, a component in the CSS process, was tested by exposing canine islets to solutions containing either 100 mM or 200 mM calcium chloride, 10 mM HEPES buffer, and 20% PEGDA, MW 3,400 Da (Laysan Bio, Inc.) for 5, 10 or 15 minutes. A group was also exposed to 100 mM calcium chloride without PEGDA to evaluate the effect of calcium alone. Islets were suspended at approximately 5,000 IEQ/mL in the test solutions to emulate the high cell loading density associated with the encapsulation process. After calcium exposure, islets were washed twice with supplemented CMRL 1066 islet media and then incubated at 37° C. and 5% CO2 for 3 hours prior to assessment.
as §1

SCCSCCS [2,2'-thiodiethanethiol]
pKa [1]: 9.4-9.5

SCCOCCS [2-mercaptoethyl ether]
pKa [1]: 10.5-10.7

N[C@H](CS)CCS [(S)-2 Aminobutane 1,4 dithiol]
pKa [1]: 8.5

O=C(CCS)OCCOC(=O)CCS [Glycol di(3mercaptopropionate)]
pKa [1]: 9.4-9.5

O=C(CS)OCCOC(=O)CS [Glycol dimercaptoacetate]
pKa [1]: 7.9-8.1

SCCOCCOCCOCCOCCOCCS [Hexaethhylene glycol dithiol]
pKa [1]: 10.5-10.7

CC(C)(O)C(=O)c1ccc(OCCO)cc1 [IRGACURE® 2959, 2-Hydroxy-4′-(2-hydroxyethoxy)-2-methylpropiophenone]
viable cell fraction ([2]; 0.025% (w/v)): 94.5% | viable cell fraction ([2]; 0.05% (w/v)): 87.2%

[Ca+2].[Cl-].[Cl-] [calcium, calcium chloride]
exposure time tolerated by islets ([3]; 100 mM calcium in concentrated, viscous PEGDA solution): at least 10 minutes | viability compared to controls ([3]; 100 mM calcium without PEGDA, 15 minutes): 97.6% | cytotoxicity to islets ([3]; 200 mM calcium): rapidly cytotoxic | viability compared to matched, untreated controls ([3]; 100 or 200 mM calcium with PEGDA or 100 mM calcium alone, 5 minutes exposure): above 97.5%

Glyceryl dithioglycolate
pKa [1]: 7.9-8.1
